Results taken from US9630922B2, “3-spiro-7-hydroxamic acid tetralins as HDAC inhibitors” (Forma Therapeutics, Inc., priority 2015, dated 2017).
pIC50: −log10 of the molar value.

The compounds below were run against T1, HDAC6 (Homo sapiens, UniProt Q9UBN7) (assay: In vitro Histone Deacetylase Assay (enzymatic HDAC6 electrophoretic mobility shift assay)). Settings: full length human recombinant HDAC6, 1 nM enzyme, 2 μM peptide substrate RHKK(Ac)-NH2, 25° C.; read-out: HDAC6 activity range.
T1 construct: Full length human recombinant HDAC6 protein was expressed in baculoviral system; made in house; host or cells: baculoviral system
T1 sequence (Q9UBN7 1-1215): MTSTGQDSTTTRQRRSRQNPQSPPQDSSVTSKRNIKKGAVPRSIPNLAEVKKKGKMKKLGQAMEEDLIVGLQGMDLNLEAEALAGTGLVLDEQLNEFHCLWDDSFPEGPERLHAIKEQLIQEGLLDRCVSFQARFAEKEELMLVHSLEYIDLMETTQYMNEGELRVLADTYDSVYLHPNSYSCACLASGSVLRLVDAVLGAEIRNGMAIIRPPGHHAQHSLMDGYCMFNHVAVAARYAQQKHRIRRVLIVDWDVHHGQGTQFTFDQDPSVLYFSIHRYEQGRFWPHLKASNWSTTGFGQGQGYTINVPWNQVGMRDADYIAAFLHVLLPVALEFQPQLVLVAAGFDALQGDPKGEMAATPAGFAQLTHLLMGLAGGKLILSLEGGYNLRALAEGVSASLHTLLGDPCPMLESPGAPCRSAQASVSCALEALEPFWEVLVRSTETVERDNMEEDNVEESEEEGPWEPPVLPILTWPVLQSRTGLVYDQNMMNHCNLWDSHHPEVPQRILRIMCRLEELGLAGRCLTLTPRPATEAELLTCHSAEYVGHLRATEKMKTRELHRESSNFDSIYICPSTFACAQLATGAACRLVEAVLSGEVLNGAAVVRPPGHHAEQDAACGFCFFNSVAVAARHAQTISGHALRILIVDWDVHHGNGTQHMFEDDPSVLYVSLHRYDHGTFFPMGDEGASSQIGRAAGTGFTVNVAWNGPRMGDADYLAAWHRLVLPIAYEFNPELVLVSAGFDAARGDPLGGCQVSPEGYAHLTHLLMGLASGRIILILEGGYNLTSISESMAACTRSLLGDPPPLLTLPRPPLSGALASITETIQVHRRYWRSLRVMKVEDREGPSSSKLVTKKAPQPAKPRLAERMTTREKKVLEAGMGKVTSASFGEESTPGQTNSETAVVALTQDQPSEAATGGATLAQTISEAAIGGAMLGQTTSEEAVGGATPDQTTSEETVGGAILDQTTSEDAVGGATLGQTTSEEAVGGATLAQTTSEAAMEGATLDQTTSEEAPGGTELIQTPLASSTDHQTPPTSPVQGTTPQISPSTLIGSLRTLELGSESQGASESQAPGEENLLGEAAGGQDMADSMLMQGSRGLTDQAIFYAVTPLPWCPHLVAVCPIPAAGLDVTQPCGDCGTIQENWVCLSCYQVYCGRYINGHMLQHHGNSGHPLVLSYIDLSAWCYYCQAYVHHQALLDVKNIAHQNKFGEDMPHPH
Type: biochemical
How it was run: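 Deacetylation was read by microfluidic mobility shift as product/(substrate+product) peak ratio and normalised to 0% and 100% inhibition controls. Reactions used 1 nM baculovirus-expressed full-length human HDAC6 and 2 μM labelled RHKK(Ac)-NH2 in pH 7.5 HEPES buffer with 1% DMSO at 25 °C. IC50 was from 4-parameter fits of 12 concentrations.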

SMILES	pIC50
O=C(NO)c1ccc2c(c1)CC[C@@]1(CCN(Cc3ccc(S(=O)(=O)C(F)(F)F)cc3)C1=O)C2 [Compound I-107, (S)-N-hydroxy-2′-oxo-1′-(4-((trifluoromethyl)sulfonyl)benzyl)-3,4-dihydro-1H-spiro[naphthalene-2,3′-pyrrolidine]-6-carboxamide]	6.30 to 7.00
N#Cc1cccc(N2CC[C@@]3(CCc4cc(C(=O)NO)ccc4C3)C2=O)c1 [Compound I-116, (S)-1′-(3-cyanophenyl)-N-hydroxy-2′-oxo-3,4-dihydro-1H-spiro[naphthalene-2,3′-pyrrolidine]-6-carboxamide]	≥ 7.00
O=C(NO)c1ccc2c(c1)CC[C@@]1(CCN(c3cccc(F)c3)C1=O)C2 [Compound I-117, (S)-1′-(3-fluorophenyl)-N-hydroxy-2′-oxo-3,4-dihydro-1H-spiro[naphthalene-2,3′-pyrrolidine]-6-carboxamide]	≥ 7.00
COc1ccc(N2CC[C@@]3(CCc4cc(C(=O)NO)ccc4C3)C2=O)cn1 [Compound I-118, (S)-N-hydroxy-1′-(6-methoxypyridin-3-yl)-2′-oxo-3,4-dihydro-1H-spiro[naphthalene-2,3′-pyrrolidine]-6-carboxamide]	≥ 7.00
O=C(NO)c1ccc2c(c1)CC[C@]1(CCN(c3ccc(F)c(F)c3)C1=O)C2 [Compound I-119, (R)-1′-(3,4-difluorophenyl)-N-hydroxy-2′-oxo-3,4-dihydro-1H-spiro[naphthalene-2,3′-pyrrolidine]-6-carboxamide]	≥ 7.00
O=C(NO)c1ccc2c(c1)CC[C@]1(CCN(c3ccc(F)cc3)C1=O)C2 [Compound I-120, (R)-1′-(4-fluorophenyl)-N-hydroxy-2′-oxo-3,4-dihydro-1H-spiro[naphthalene-2,3′-pyrrolidine]-6-carboxamide]	≥ 7.00
O=C(NO)c1ccc2c(c1)CC[C@@]1(CCN(CC3COC3)C1=O)C2 [Compound I-122, (S)-N-hydroxy-1′-(oxetan-3-ylmethyl)-2′-oxo-3,4-dihydro-1H-spiro[naphthalene-2,3′-pyrrolidine]-6-carboxamide]	6.30 to 7.00
O=C(NO)c1ccc2c(c1)CC[C@]1(CCN(c3cccc(F)c3F)C1=O)C2 [Compound I-123, (R)-1′-(2,3-difluorophenyl)-N-hydroxy-2′-oxo-3,4-dihydro-1H-spiro[naphthalene-2,3′-pyrrolidine]-6-carboxamide]	≥ 7.00
COc1ccc(N2CC[C@]3(CCc4cc(C(=O)NO)ccc4C3)C2=O)cc1 [Compound I-124, (R)-N-hydroxy-1′-(4-methoxyphenyl)-2′-oxo-3,4-dihydro-1H-spiro[naphthalene-2,3′-pyrrolidine]-6-carboxamide]	≥ 7.00
COc1cccc(N2CC[C@]3(CCc4cc(C(=O)NO)ccc4C3)C2=O)c1F [Compound I-125, (2R)-1′-(2-fluoro-3-methoxyphenyl)-N-hydroxy-2′-oxo-3,4-dihydro-1H-spiro[naphthalene-2,3′-pyrrolidine]-6-carboxamide]	≥ 7.00
COc1cccc(N2CC[C@@]3(CCc4cc(C(=O)NO)ccc4C3)C2=O)c1F [Compound I-126, (2S)-1′-(2-fluoro-3-methoxyphenyl)-N-hydroxy-2′-oxo-3,4-dihydro-1H-spiro[naphthalene-2,3′-pyrrolidine]-6-carboxamide]	≥ 7.00
COc1ccc(N2CC[C@@]3(CCc4cc(C(=O)NO)ccc4C3)C2=O)c(F)c1 [Compound I-127, (2S)-1′-(2-fluoro-4-methoxyphenyl)-N-hydroxy-2′-oxo-3,4-dihydro-1H-spiro[naphthalene-2,3′-pyrrolidine]-6-carboxamide]	≥ 7.00
COc1cc(N2CC[C@]3(CCc4cc(C(=O)NO)ccc4C3)C2=O)ccc1F [Compound I-128, (2R)--(4-fluoro-3-methoxyphenyl)-N-hydroxy-2′-oxo-3,4-dihydro-1H-spiro[naphthalene-2,3′-pyrrolidine]-6-carboxamide]	≥ 7.00
COc1cc(N2CC[C@@]3(CCc4cc(C(=O)NO)ccc4C3)C2=O)ccc1F [Compound I-129, (2S)-1′-(4-fluoro-3-methoxyphenyl)-N-hydroxy-2′-oxo-3,4-dihydro-1H-spiro[naphthalene-2,3′-pyrrolidine]-6-carboxamide]	≥ 7.00
O=C(NO)c1ccc2c(c1)CC[C@@]1(CCN(c3ccc(Cl)cn3)C1=O)C2 [Compound I-130, (S)-1′-(5-chloropyridin-2-yl)-N-hydroxy-2′-oxo-3,4-dihydro-1H-spiro[naphthalene-2,3′-pyrrolidine]-6-carboxamide]	≥ 7.00

Continued, values first:

pIC50	SMILES
≥ 7.00	CC(C)c1ccc(N2CC[C@@]3(CCc4cc(C(=O)NO)ccc4C3)C2=O)cn1 [Compound I-101, (S)-N-hydroxy-1′-(6-isopropylpyridin-3-yl)-2′-oxo-3,4-dihydro-1H-spiro[naphthalene-2,3′-pyrrolidine]-6-carboxamide]
≥ 7.00	O=C(NO)c1ccc2c(c1)CC[C@@]1(CCN(c3cnc4ccccc4c3)C1=O)C2 [Compound I-102, (S)-N-hydroxy-2′-oxo-1′-(quinolin-3-yl)-3,4-dihydro-1H-spiro[naphthalene-2,3′-pyrrolidine]-6-carboxamide]
≥ 7.00	CN1CC[C@]2(CCc3cc(C(=O)NO)ccc3C2)C1=O [Compound I-104, (R)-N-hydroxy-1′-methyl-2′-oxo-3,4-dihydro-1H-spiro[naphthalene-2,3′-pyrrolidine]-6-carboxamide]
≥ 7.00	CN1CC[C@@]2(CCc3cc(C(=O)NO)ccc3C2)C1=O [Compound I-105, (S)-N-hydroxy-1′-methyl-2′-oxo-3,4-dihydro-1H-spiro[naphthalene-2,3′-pyrrolidine]-6-carboxamide]
≥ 7.00	O=C(NO)c1ccc2c(c1)CC[C@]1(CCN(Cc3ccc(S(=O)(=O)C(F)(F)F)cc3)C1=O)C2 [Compound I-106, (R)-N-hydroxy-2′-oxo-1′-(4-((trifluoromethyl)sulfonyl)benzyl)-3,4-dihydro-1H-spiro[naphthalene-2,3′-pyrrolidine]-6-carboxamide]
≥ 7.00	COc1cccc(N2CC[C@]3(CCc4cc(C(=O)NO)ccc4C3)C2=O)c1 [Compound I-108, (R)-N-hydroxy-1′-(3-methoxyphenyl)-2′-oxo-3,4-dihydro-1H-spiro[naphthalene-2,3-pyrrolidine]-6-carboxamide]
≥ 7.00	O=C(NO)c1ccc2c(c1)CC[C@]1(CCN(C3CC3)C1=O)C2 [Compound I-109, (R)-1′-cyclopropyl-N-hydroxy-2′-oxo-3,4-dihydro-1H-spiro[naphthalene-2,3′-pyrrolidine]-6-carboxamide]
≥ 7.00	O=C(NO)c1ccc2c(c1)CC[C@]1(CCN(c3cncc(F)c3)C1=O)C2 [Compound I-110, (R)-1′-(5-fluoropyridin-3-yl)-N-hydroxy-2′-oxo-3,4-dihydro-1H-spiro[naphthalene-2,3′-pyrrolidine]-6-carboxamide]
≥ 7.00	COc1ccccc1N1CC[C@]2(CCc3cc(C(=O)NO)ccc3C2)C1=O [Compound I-111]
≥ 7.00	N#Cc1cccc(N2CC[C@]3(CCc4cc(C(=O)NO)ccc4C3)C2=O)c1 [Compound I-112, (R)-1′-(3-cyanophenyl)-N-hydroxy-2′-oxo-3,4-dihydro-1H-spiro[naphthalene-2,3′-pyrrolidine]-6-carboxamide]
≥ 7.00	O=C(NO)c1ccc2c(c1)CC[C@]1(CCN(c3cccc(F)c3)C1=O)C2 [Compound I-113, (R)-1′-(3-fluorophenyl)-N-hydroxy-2′-oxo-3,4-dihydro-1H-spiro[naphthalene-2,3′-pyrrolidine]-6-carboxamide]
≥ 7.00	COc1ccc(N2CC[C@]3(CCc4cc(C(=O)NO)ccc4C3)C2=O)cn1 [Compound I-114, (R)-N-hydroxy-1′-(6-methoxypyridin-3-yl)-2′-oxo-3,4-dihydro-1H-spiro[naphthalene-2,3′-pyrrolidine]-6-carboxamide]
≥ 7.00	COc1ccccc1N1CC[C@@]2(CCc3cc(C(=O)NO)ccc3C2)C1=O [Compound I-115, (S)-N-hydroxy-1′-(2-methoxyphenyl)-2′-oxo-3,4-dihydro-1H-spiro[naphthalene-2,3′-pyrrolidine]-6-carboxamide]
